Assay results published in US20120130146A1, “CONTINUOUS ADMINISTRATION OF CILENGITIDE IN CANCER TREATMENTS” (Merck Patent GmbH, priority 2009, published 2012).
Entries after “also recorded” stand apart in the source; their conditions may differ.

Tests used:
[1] = test system: recurrent glioblastoma (GBM); test: Phase IIa trial of cilengitide single agent therapy in patients with recurrent glioblastoma; type: in vivo, human
Experimental: Background: The present phase IIa study was designed to evaluate the safety, toxicity, and clinical activity of the cyclic RGD pentapeptide cilengitide((=cyclo-(Arg-Gly-Asp-DPhe-NMe-Val)), an inhibitor of integrins avβ3 and avβ5, as a single agent at doses of 500 and 2000 mg in patients (pts) with recurrent glioblastoma (GBM).
Methods: in this multicenter, open-label, randomized, uncontrolled study, pts with GBM and measurable disease that had relapsed after previous therapy with temozolomide and radiotherapy were randomized to receive cilengitide at doses of either 500 mg or 2000 mg i.v., 2×/week, until progression. Histopathology diagnosis and MRI imaging were subject to independent blinded review. The primary endpoint was Progression Free Survival (PFS) at 6 months (mths). Secondary endpoints included response, survival, time to disease progression, safety, tolerability and pharmacokinetics.

[2] = test system: U251 human glioblastoma cells; test: Rat orthotopic glioblastoma model radiotherapy, Cilengitide scheduling experiments; type: in vivo; settings: t-4 and t-8 h groups
Experimental: NIH mu nude rats are anaesthetized, restrained, and injected intracerebrally 1 mm retro orbitally, 3 mm to the right of the bregma and at a depth of 2.5 mm with 5×10E5 U251 human glioblastoma cells suspended in 10 ul of culture medium, using a #2701 Hamilton syringe fitted with a 26 gauge needle, essentially as previously described (Engebraaten et al., 1999). After 14 days, cilengitide (4 mg/kg) is given as an intraperitoneal bolus in PBS, at various time (8 h, 4 h, 2 h, 1 h) prior to a single treatment with single, collimated, dorsal-ventral beam of 6 MV x-rays, so that 95-100% of the central axis dose of 25 Gy hit the tumor volume (Kim et al., 1999). Each of the 7 subsequent days the animals also received an identical i.p. bolus of cilengitide. The animals are maintained under ad libitum food and drink until they become moribund, or are sampled for tissue analysis (in the t-4 and t-8 h groups, where the animals are healthy past 230 days post tumor injection). A Kaplan-Meier survival curve is calculated and plotted (FIG. 1) from the raw data (Table 1). All animals in the RT monotherapy group died by 120 d.

[3] = test system: newly diagnosed glioblastoma (GBM); test: Phase I/IIa trial of cilengitide and temozolomide with concomitant radiotherapy in newly diagnosed glioblastoma; type: in vivo, human
Experimental: Purpose: To evaluate safety, toxicity, and efficacy of the combination of the cyclic RGD pentapeptide Cilengitide (=cyclo-(Arg-Gly-Asp-DPhe-NMe-Val)), an inhibitor of integrins avβ3 and avβ5, in addition to standard temozolomide (TMZ) and radiotherapy (RT).
Patients and methods: Fifty-two pts (PS 0-1: 92%, 2: 8%; median age 57 yrs) after biopsy (n=9/17%) or tumor resection (n=43/83%) were treated with standard TMZ/RT (Stupp et al. NEJM 2005). In addition Cilengitide (500 mg i.v., 2×/week) was started one week before TMZ/RT and given throughout for the duration of chemotherapy or until progression. Primary endpoint was progression free survival rate at 6 months (target: 65%). Patients were followed with MRI every 2 months. Histopathologic diagnosis and MRI imaging were independently reviewed, MGMT promotor methylation status was assessed in 45 (86.5%) pts.

[4] = test system: advanced solid malignancy; test: Phase I study of continuous infusion EMD 121974 in patients with advanced solid malignancy (safety); type: in vivo
Experimental: Background: Integrins avβ3 and avβ5 are cell-surface receptors that play a significant role in angiogenesis by mediating the ligation signal that allows endothelial cells to attach to the extracellular matrix. These integrins share the binding epitope Arg-Gly-Asp (RGD). EMD is an RGD-containing cyclic pentapeptide. In clinical studies to date, EMD has been administered in an intermittent fashion. […] Methods: EMD was administered as a continuous infusion without break in 4-week cycles. Plasma samples for pharmacokinetic studies were obtained weekly in cycle 1 immediately prior to and 2 hours after infusion bag change. Results: To date 21 patients (15 male/6 female, median age 56, median Karnofsky performance status 90%) have been treated at the following dose levels: 1, 2, 4, 8, 12, 18, and 27 mg/h. […] Non-hematologic toxicities have been limited to grade<2 and include alopecia, anorexia, diarrhea, fatigue, hypokalemia, hyponatremia, hypophosphatemia, insomnia, mucositis, nail changes, nausea, and transaminase elevation. […] Pharmacokinetic analysis has been completed for patients treated at the 12 mg/h dose level and below. […] Conclusions: EMD can be safely administered as a continuous infusion at doses of up to at least 18 mg/h. No single toxicity has been consistently observed.

[5] = test system: human umbilical vein endothelial cells (HUVECs); test: Growth (Alamar Blue) assay on HUVEC, Example 5; type: cell-based; settings: agent alone
Source text: The methods established and described in detail previously (Goodman and Hahn a; b) were used to measure the effect of combinations of integrin inhibitors and chemotherapeutics on carcinoma cell and human endothelial cell proliferation.
Points were run in duplicate or in triplicate. Reagent blanks, containing media plus Alamar Blue without cells, were run on each plate. Blank values were subtracted from test values and were routinely 5-10% of uninhibited control values.
5.5 Methods of Evaluation and Statistics Chemotherapeutic agents and αv-integrin blockers were serially diluted alone or together (combination therapy). In some assays the chemotherapeutic agent was serially diluted alone or in combination with of alpha-v integrin blocker. Growth inhibition curves were plotted and a shift of the combination therapy curve to lower concentrations in relation to the single agent curves was interpreted as an additional effect, produced by combination versus monotherapy.
The αv-integrin competitive inhibitor Cilengitide (EMD 121974) was tested alone and in combination with vinorelbine in a serum growth stimulation assay using human carcinoma cells or human umbilical vein endothelial cells (HUVECs). In these assays cells are cultured in serum, or in an endothelial growth stimulation medium (Goodman & Hahn).

various brain tumors = settings: cited from earlier work
[6] = human, in vivo; cited from earlier work
[7] = Cilengitide 500 mg i.v. 2x/week in addition to standard TMZ/RT

## CC(C)[C@H]1C(=O)N[C@@H](CCCN=C(N)N)C(=O)NCC(=O)N[C@@H](CC(=O)O)C(=O)N[C@H](Cc2ccccc2)C(=O)N1C [Cilengitide, cyclo-(Arg-Gly-Asp-DPhe-NMeVal)]
[1]; 500 mg arm
  median Overall Survival (mOS): 6.5 mths
[1]; 1 cycle = 4 weeks, both dose arms
  pts who received 12 or more cycles of therapy: 12.3%
[1]; 2000 mg arm
  median Overall Survival (mOS): 9.9 mths
[1]; 500 or 2000 mg i.v. 2x/week, all 81 pts
  PFS rate at 6 mths: 16.1%
[1]; at 500 mg, in 1 patient each
  Treatment related NCI CTC grade 3 adverse events: elevated liver enzymes; also recorded: arthralgia/myalgia
[1]; at 2000 mg, in 1 patient
  Treatment related NCI CTC grade 3 adverse events: weight increase/edema
[1]; at the time the abstract was issued
  pts still progression-free and on treatment: 7.4%
[1]; both dose arms
  grade 4 therapy related AEs: No grade 4 therapy related AEs
[1]; human, in vivo
  single agent activity in recurrent glioblastoma: advantagous single agent activity
[1]; possibly related either to the drug or to the disease
  cerebral hemorrhage: One CTC grade 2 cerebral hemorrhage
[1]; single agent therapy at two dose levels
  tolerability: tolerated well
[2]
  animals healthy, days post tumor injection: > 230 days
[3]; [7]
  haematological grade 3 and 4 toxicity: lymphopenia: 53.8%
  haematological grade 3 and 4 toxicity: neutropenia: 9.6%
  haematological grade 3 and 4 toxicity: thrombocytopenia: 13.4%
  patients with treatment related non-hematologic grade 3 toxicities: 5.7%
[3]; all 52 pts, Cilengitide in addition to TMZ/RT
  patients progression free at 6 months (PFS-6): 65.4%
[3]; combination of Cilengitide and TMZ/RT
  tolerability: well tolerated
[3]; subgroup with methylated MGMT promoter (23/52), Cilengitide in addition to TMZ/RT
  PFS-6 rate: 91%
[3]; subgroup with unmethylated MGMT promotor (22/52), Cilengitide in addition to TMZ/RT
  PFS-6 rate: 40.9%
[4]; human, in vivo
  dose that can be safely administered as a continuous infusion: at least 18 mg/h
[4]; one patient treated at 27 mg/h, after two weeks of therapy
  patient death: unobserved death of unknown cause
[5]
  IC50: 700 nM
Various brain tumors; human, in vivo
  MTD in humans: no known MTD
  tolerability: very well tolerated
Various brain tumors; some of the GBM patients
  response in GBM patients: indication of response
[6]
  half-life: 3 to 5 h
